For test [1], the target named is T1, Or56a/Orco (pDmelOR-R.E.hOr56a; mRho.V5.mER.hOr56a + hOrco) (Drosophila melanogaster, UniProt Q9V8Y7).
T1 construct: human codon-optimized Or56a with N-terminal mRho.V5.mER tag; N-terminal myc-tagged codon-optimized Orco, spliced chimeric intron; bidirectional vector, transient HEK293; with Odorant receptor coreceptor
T1 sequence (Q9V8Y7 1-419): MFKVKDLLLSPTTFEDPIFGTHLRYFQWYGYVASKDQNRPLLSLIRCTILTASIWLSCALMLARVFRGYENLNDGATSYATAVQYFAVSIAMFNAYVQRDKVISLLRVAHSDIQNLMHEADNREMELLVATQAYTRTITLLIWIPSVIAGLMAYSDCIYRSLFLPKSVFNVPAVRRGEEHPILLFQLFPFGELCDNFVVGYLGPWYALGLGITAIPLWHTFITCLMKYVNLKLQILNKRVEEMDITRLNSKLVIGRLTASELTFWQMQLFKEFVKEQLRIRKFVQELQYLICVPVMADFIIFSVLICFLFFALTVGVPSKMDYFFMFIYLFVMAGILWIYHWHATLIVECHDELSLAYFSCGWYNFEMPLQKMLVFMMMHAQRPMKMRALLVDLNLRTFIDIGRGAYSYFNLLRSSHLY
T1 sequence (Q9VNB5 1-486 partner): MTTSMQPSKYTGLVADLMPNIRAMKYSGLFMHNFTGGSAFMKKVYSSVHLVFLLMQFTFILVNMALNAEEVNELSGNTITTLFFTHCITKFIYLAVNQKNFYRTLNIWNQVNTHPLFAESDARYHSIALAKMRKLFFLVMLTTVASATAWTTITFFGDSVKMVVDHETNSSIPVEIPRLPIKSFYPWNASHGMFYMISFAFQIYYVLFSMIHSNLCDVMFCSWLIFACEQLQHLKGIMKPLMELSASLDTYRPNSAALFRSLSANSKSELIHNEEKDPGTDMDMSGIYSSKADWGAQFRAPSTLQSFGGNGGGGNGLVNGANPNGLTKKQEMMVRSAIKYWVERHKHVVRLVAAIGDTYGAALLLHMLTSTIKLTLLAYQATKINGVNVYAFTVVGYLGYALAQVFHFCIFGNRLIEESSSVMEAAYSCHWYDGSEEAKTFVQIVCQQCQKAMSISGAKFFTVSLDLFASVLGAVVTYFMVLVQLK
The test is described as follows: Fura-2 calcium imaging, automated platform, response normalized to VUAA1. The test is classed as cell-based. Conditions: agonist; 1 mM CaCl2, pH 7.4; 3-parameter logistic fit; transient HEK293. The source says: Fura-2 calcium imaging, automated platform, response normalized to VUAA1 on Or56a/Orco (pDmelOR-R.E.hOr56a; mRho.V5.mER.hOr56a + hOrco) | or with pDmelOR-R.E.hOr56a and stimulated with geosmin (e)

The target in test [2] is T2, Or47a/Orco heteromer (pDmelOR-R.E.hOr47a; mRho.V5.mER.hOr47a + hOrco) (Drosophila melanogaster, UniProt P81921).
T2 construct: N-terminal myc-tagged codon-optimized Orco, spliced chimeric intron; bidirectional vector, transient HEK293; with Odorant receptor coreceptor
T2 sequence (P81921 1-385): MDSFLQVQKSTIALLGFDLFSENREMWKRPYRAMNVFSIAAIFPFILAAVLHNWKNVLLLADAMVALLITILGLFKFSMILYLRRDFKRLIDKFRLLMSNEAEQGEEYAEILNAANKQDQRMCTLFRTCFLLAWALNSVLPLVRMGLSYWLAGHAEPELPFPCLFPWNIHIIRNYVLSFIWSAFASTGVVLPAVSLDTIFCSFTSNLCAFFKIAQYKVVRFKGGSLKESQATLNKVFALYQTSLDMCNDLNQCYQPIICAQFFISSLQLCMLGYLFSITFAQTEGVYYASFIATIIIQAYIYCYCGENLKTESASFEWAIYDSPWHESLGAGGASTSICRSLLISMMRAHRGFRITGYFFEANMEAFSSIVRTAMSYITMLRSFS
T2 sequence (Q9VNB5 1-486 partner): T1 sequence (Q9VNB5 1-486 partner)
The test is described as above. To be noted: agonist; 1 mM CaCl2, pH 7.4; 3-parameter logistic fit; transient HEK293. The test is classed as cell-based. The source says:
Fura-2 calcium imaging, automated platform, response normalized to VUAA1 on Or47a/Orco heteromer (pDmelOR-R.E.hOr47a; mRho.V5.mER.hOr47a + hOrco) | transfected with pDmelOR-R.E.hOr47a and stimulated with pentyl acetate (d)

Molecules are shown by their SMILES.

This is an account of results in publication PMC6821309, “Optimization of Insect Odorant Receptor Trafficking and Functional Expression Via Transient Transfection in HEK293 Cells” (Chemical Senses, 2019).

Turning to `CC1CCCC2(C)CCCCC12O` (racemic) [geosmin], the EC50 in test [1] is reported as 7.19·10^–7 (3.97 × 10^–7; 1.30 × 10^–6) M. In the case of `CCCCCOC(C)=O` [pentyl acetate], the EC50 in test [2] is 2.45·10^–5 (1.83 × 10^–5; 3.29 × 10^–5) M.
